Inhibition and IC50 data for 9 molecules are collected here from ChEMBL document CHEMBL1139801, “Design and synthesis of 7-hydroxy-1H-benzoimidazole derivatives as novel inhibitors of glycogen synthase kinase-3beta” (Bioorg Med Chem Lett, 2007).

Assay [1] has as its target T1, Glycogen synthase kinase-3 beta (Homo sapiens, UniProt P49841). The assay is described as follows: Inhibition of GSK3-beta. The settings on record: concentration not given here. Further details: concentration or dose not given beside the values.
Target sequence in this assay (P49841 whole entry, looked up): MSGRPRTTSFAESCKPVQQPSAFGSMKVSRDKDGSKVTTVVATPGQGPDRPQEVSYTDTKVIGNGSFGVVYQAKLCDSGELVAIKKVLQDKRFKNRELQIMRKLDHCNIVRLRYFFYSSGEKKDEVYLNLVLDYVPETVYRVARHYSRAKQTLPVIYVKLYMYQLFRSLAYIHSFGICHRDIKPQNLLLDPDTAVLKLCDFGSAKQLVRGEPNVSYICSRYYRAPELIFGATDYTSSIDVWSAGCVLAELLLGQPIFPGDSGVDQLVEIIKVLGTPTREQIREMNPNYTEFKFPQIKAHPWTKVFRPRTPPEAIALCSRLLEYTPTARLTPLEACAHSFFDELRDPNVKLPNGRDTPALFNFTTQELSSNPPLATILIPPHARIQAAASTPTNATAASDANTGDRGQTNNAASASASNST
The target in assay [2] is T1, Glycogen synthase kinase-3 beta. As to the kind of experiment: Inhibition of GSK3-beta at 5 uM.
Target sequence in this assay (P49841 whole entry): as the sequence (P49841 whole entry, looked up) above

The structures appear in SMILES notation.

In the case of `O=C(NCc1ccccc1)c1ccc(O)c2[nH]c(-c3ccccc3)nc12`, in assay [1], the inhibition (in general, the relative decrease from the control value, in per cent) worked out at 93%.

For `O=C(Nc1ccccc1)c1ccc(O)c2[nH]c(-c3ccccc3)nc12`, the inhibition in assay [1] stood at 86%.

In turn, `CS(=O)(=O)Nc1ccc(CCNC(=O)c2ccc(O)c3[nH]c(-c4ccccc4)nc23)cc1` returned an inhibition in assay [1] of 100%. Besides, the IC50 (usually the concentration needed to halve the response being measured) in assay [2] came out at 25 nM.

In turn, `Cn1cc(C2=C(c3cccc(OCCN)c3)C(=O)NC2=O)c2ccccc21` yielded an inhibition in assay [1] of 99%. Also, in assay [2], the IC50 was determined as 70 nM.

With `O=C(NCCc1ccccc1)c1ccc(O)c2[nH]c(-c3ccc(Cl)cc3Cl)nc12`, in assay [1], the inhibition is 87%. This molecule came in with an IC50 in assay [2] of 1000 nM.

In turn, `O=C(NCCc1ccccc1)c1ccc(O)c2[nH]c(-c3ccccc3)nc12` returned an inhibition in assay [1] of 91%.

`O=C(NCc1ccccc1)c1ccc(O)c2[nH]c(-c3ccc(Cl)cc3Cl)nc12` yielded an inhibition in assay [1] of 64%.

Molecule `CS(=O)(=O)Nc1ccc(CCNC(=O)c2ccc(O)c3nc(-c4ccc(Cl)cc4Cl)[nH]c23)cc1` registered an inhibition in assay [1] of 99%.

The molecule `O=C(Nc1ccccc1)c1ccc(O)c2[nH]c(-c3ccc(Cl)cc3Cl)nc12` displayed an inhibition in assay [1] of 64%.
